Peptide text beside a SMILES is read from it.
Legend:
[1] = system: MB231 breast cancer cells; details: summary table
Protocol: A typical in vitro screen for anti-tumor or anti-cancer effects was carried out as follows.
An aliquot of 2,000 MB231 breast cancer cells (breast carcinoma cells) in 100 μl DMEM complete media (Sigma Chemical Co.) was plated in a 96 well plate containing at a concentration of 20 μg/ml a test substance or control water. To measure proliferation of the cancer cells, an aliquot of 20 μl of MTS reagent (Promega Co.) was added to each well and the cells were incubated at 37° C. for a total of three days. The cells rapidly metabolized MTS reagent and the metabolized MTS reagent was measured at 490 nm at the end of days 1, 2 and 3. The reading was proportional to the number of cancer cells. The decrease in absorbance at each time point indicated fewer cancer cells. At the end of day 3, the decrease in absorbance with respect to the control indicated the inhibition by the test substance.

[2] = topical treatment of bilateral inter-metacarpal atrophy of hands; type: in vivo, human; details: Example 23: subject, 2% (w/v) in EP73 two to three times daily, three weeks
Description: A subject had bilateral inter-metacarpal atrophy of both hands with certain restrictions of hand movements. The subject topically applied two to three times daily N-Ac-L-Tyr-L-Tyr-L-Tyr-OEt, 2% (w/v) in EP73 on the back of their left hand, and vehicle control EP73 on the back of their right hand for three weeks.
The subject now, topically applied twice daily N-Ac-L-Tyr-L-Tyr-L-Tyr-NH2, 1% (w/v) in WEP442 on the back of their left hand as a mantenace therapy.

[3] = topical treatment of telangiectatic rosacea, clinical evaluation; type: in vivo, human; details: Example 22: subject, face, 1% (w/v) in WEP442 twice daily, two weeks
Description: A subject had rosacea on their face with erythema, inflammation and dilated blood vessels, described as telangiectatic rosacea. The subject topically applied twice daily N-Ac-L-Tyr-L-Tyr-L-Tyr-OEt, 1% (w/v) in WEP442 for two weeks. At the end of two weeks, the erythema and inflammation had diminished, and improvement in rduced size of telangiectatic blood vessels was discernible. The rosacea lesions had approximately 25% improvement as judged by clinical evaluation.

[4] = knee osteoarthritis, topical maintenance therapy; type: in vivo, human; details: Example 25: subject, 1% (w/v) in EP73 topically 2-3 times daily on skin covering the knee areas
Description: (§1) In yet another embodiment, the volunteer subject topically applied once or twice daily the test compositions containing N-acylpeptide derivatives of the present invention on the skin site above arthritic joints or painful muscles to provide therapeutic effects for the systemic disorders via topical administration.

[5] = skin plump / skin thickness test after topical application, caliper measurement; type: in vivo, human; details: for increased skin thickness: 1% (w/v) in WEP442 three times daily
Protocol: In one of the studies related to skin changes associated with aging, skin thickness was measured by micrometer calipers as follows.
The skin was grasped with a 2×6 cm metal hinge: the internal faces of which were coated with emery cloth to prevent slippage, and manually squeezed to threshold subject discomfort. Combined thickness of two whole-skin layers including thickness of the two hinge leaves was measured with micrometer calipers. Thickness of the two hinge leaves was subtracted to determine the actual thickness of two whole-skin layers. Triplicate measurements on treated sites were done and an average number was used for calculation of the skin thickness.
In other studies, test sites of skin 17 mm in diameter were used, the circular sites were marked with permanent ink. Intervening control sites were also 17 mm in diameter. Thickness of skin of all sites was measured directly by means of an electronic digital caliper. In this instance the jaws of the caliper were opened to 17 mm, applied with pressure to the skin sites and then closed to firm tightness. Thickness of skin was then read off the screen of the calipers. Measurements of all sites were made in triplicates. […]

[6] = topical treatment of chronic inflammation, erythema, eczema with thick scales and itch, clinical evaluation; type: in vivo, human; details: Example 10: subject, -NH2 0.3% and -OEt 0.5% (w/v) in WEP442
Description: The involved skin was divided into two lesions for testing. The subject topically applied twice daily to one lesion, N-Ac-L-Tyr-L-Tyr-L-Tyr-NH2 0.3% (w/v) in WEP442, pH 5.9 solution composition, prepared according to Example 2, and to second lesion, N-Ac-L-Tyr-L-Tyr-L-Tyr-OEt 0.5% (w/v) in WEP 442, pH 6.0, prepared according to Example 2. […] The treated skin had 90-95% improvement as judged by clinical evaluation.

[7] = knee osteoarthritis, intra-articular injections; type: in vivo, human; details: for duration of relief of pains / period of diminished edema and inflammation of the knees and lower legs / time after injection until pains in both knees disappeared: Example 18: subject; for duration of relief of pains / period of diminished edema and inflammation of the knees and lower legs: intra-articular 1 mg each knee; for time after injection until pains in both knees disappeared: intra-articular 1 mg each knee (-OH 1% in water 0.1 ml; -OEt 0.2% with 1% methyl cellulose 0.5 ml)
Protocol: A subject had severe osteoarthritis of both knees for more than four years. Prior therapy had included intra-articular injections of corticosteroids and hyaluronic acid as well as celecoxib (Celebrex) orally (200 mg) twice daily. Such therapy had provided only mild transitory relief of knee pain and edema, and edema of lower legs.
Intra-articular injections of 1% (w/v) N-Ac-L-Tyr-L-Tyr-L-Tyr-OH in water, 0.1 ml (1 mg) as prepared in Example 4 were administered to each knee. The pains in both knees disappeared about 20-30 minutes after the injections, and the relief of pains lasted for 24 hours. Edema and inflammation of the knees and lower legs had diminished for approximately the same 24 hour period. Repeat injections of the same composition were administered once a week for several weeks to provide continued relief of pain, edema and inflammation.
In another trial, intra-articular injections of 0.2% (w/v) N-Ac-L-Tyr-L-Tyr-L-Tyr-OEt with 1% (w/v) methyl cellulose in water, 0.5 ml (1 mg) as prepared in Example 4 were also administered to each knee at different times. The pains in both knees disappeared about 20-30 minutes after the injections, and the relief of pains lasted for 24 hours. Edema and inflammation of the knees and lower legs had diminished for approximately the same 24 hour period.
A subject had osteoarthritis of both knees for more than four years. […] Intra-articular injections of each knee with N-Ac-L-Tyr-L-Tyr-L-Tyr-OH, 7-13 mg in aqueous solution had provided substantial relief of pain in the joints for 2-3 days.
(§2) In yet another embodiment, the volunteer subject injected intra-articularly into a knee joint a test composition containing a N-acylpeptide derivative of the present invention to improve and reduce arthritic inflammation and pain of the joint.

[8] = summary of test results in volunteer subjects, efficacy grades; type: in vivo, human; details: efficacy grade
Description: Subject 1. Person had multiple red and itchy inflammation, dermatitis, or eczema lesions, which were resistant to conventional treatments including corticosteroids. Subject 2. Person had small red and itchy lesions which were resistant to topical corticosteroid treatment. Subject 3. Person had multiple red and itchy inflammation, dermatitis, or eczema lesions over the body for many years, which were resistant to conventional treatments including corticosteroids. Subject 4. Person had red and itchy inflammation, dermatitis, or eczema lesions for many years, which were resistant to topical corticosteroid treatment. Subject 5. Person had early stage of aging related skin changes on both forearms as indicated by age spots and wrinkled skin caused by solar damage. Subject 6. Person had age spots, keratoses and wrinkles on both forearms caused by intrinsic and extrinsic aging. Subject 7. Person had age spots, and wrinkles on both forearms caused by intrinsic and extrinsic aging. Subject 8. Person had osteoarthritis of both knees with inflammation and pain for more than 4 years, and had only mild transitory relief from conventional treatments. Subject 9. Person had sensitive skin with inflammatory lesions on the body. Subject 12. Person had dermatitis and inflammatory lesions on the left palm. Subject 14. Person had multiple age spots including lentigines and keratosis on their face. Subject 15. Person had psorisis Subject 16. Person had sensitive skin and eczema for more than 40 years
In another embodiment, the volunteer subject topically applied the test compositions containing N-acylpeptide derivatives of the present invention on involved skin or lesions once or twice daily for several weeks or until the involved lesions completely cleared and clinically changed to normal skin. As a control study, the subject also topically applied a vehicle control composition on the involved skin or lesions twice daily for the same period.
as §1, §2
Some test results are summarized as follows.
DK: Disturbed keratinization AG: Aging related changes of skin, nail and hair DI: Deranged immune disorders and inflammation ND: Nerve disorders CA: Tumors and/or cancers

[9] = skin thickness after intradermal injection on the forearms; type: in vivo, human; details: Example 15: subject, intradermal 0.05 ml (0.5 mg) of 1% in water, after 8 days
Protocol: In other studies, test sites of skin 17 mm in diameter were used, the circular sites were marked with permanent ink. Intervening control sites were also 17 mm in diameter. Thickness of skin of all sites was measured directly by means of an electronic digital caliper. In this instance the jaws of the caliper were opened to 17 mm, applied with pressure to the skin sites and then closed to firm tightness. Thickness of skin was then read off the screen of the calipers. Measurements of all sites were made in triplicates.
A typical systemic administration by intradermal injection was carried out as follows. A subject, injected intradermally on the forearms the following N-acylpeptide derivative of the present invention:
(a). N-Ac-L-Tyr-L-Tyr-L-Tyr-OH, 0.05 ml (0.5 mg) of 1% in water, after 8 days, there was 10-20% increase in skin thickness of 6 mm size skin at the injection site: effective for aging skin. (b). N-Ac-L-Ala-L-Leu-L-Lys-L-His-L-Arg-NH2 (SEQ ID NO: 51), 0.05 ml (0.5 mg) of 1% in water. (c). N-Bz-L-Ala-L-Leu-L-Lys-L-His-L-Arg-NH2 (SEQ ID NO: 65), 0.05 ml (0.5 mg) of 1% in water. (d). N-Ac-(EEASPEAVAGVGFESK)-NH2 (SEQ ID NO: 126), 0.1 ml (0.4 mg) of 0.4% in water.

[10] = urination (diuretic effect) after topical application on forehead; type: in vivo, human; details: Example 17: subject, 0.2% in WEP442 on forehead, about one hour later; repeated next day with same result
Description: The subject then topically applied N-Ac-L-Tyr-L-Tyr-L-Tyr-OH, 0.2% in WEP442 on their forehead. […] The subject repeated the same procedure the next day, and obtained the same result.

CC(=O)N[C@@H](CCC(=O)O)C(=O)N[C@@H](CCC(=O)O)C(=O)N[C@@H](C)C(=O)N[C@@H](CO)C(=O)N1CCC[C@H]1C(=O)N[C@@H](CCC(=O)O)C(=O)N[C@@H](C)C(=O)N[C@H](C(=O)N[C@@H](C)C(=O)NCC(=O)N[C@H](C(=O)NCC(=O)N[C@H](C(=O)N[C@@H](CCC(=O)O)C(=O)N[C@@H](CO)C(=O)N[C@@H](CCCCN)C(N)=O)c1ccccc1)C(C)C)C(C)C [N-Ac-(EEASPEAVAGVGBESK)-NH2] (HELM PEPTIDE1{[ac].E.E.A.S.P.E.A.V.A.G.V.G.[Phg].E.S.K.[am]}$$$$V2.0)
CA (Tumors and/or cancers) [1]: 9% Inhibition

N-Ac-L-Tyr-L-Tyr-L-Tyr-OEt
inter-metacarpal atrophy of left hand [2]: disappeared almost completely | improvement of rosacea lesions as judged by clinical evaluation [3]: approximately 25% | knee joint pain under maintenance therapy [4]: continued relief of knee joint pains | increase in skin thickness ([5]; Example 9: subject, severe photodamage, forearm spots, 0.5% (w/v) in WEP721 (spot A in WEP442) four times daily, 10 days): 20-30% | increase in skin thickness ([5]; Example 19: subject, right extensor forearm, 0.8% (w/v) in WEP442 three times daily, four weeks): approximately 33% | skin condition of test site vs vehicle control ([5]; Example 20: subject, photoaging forearms, 0.5% (w/v) in WEP442 three times daily, four weeks): palpably raised, smooth, less wrinkled and increased in skin thickness | increased skin thickness ([5]; Example 20: subject, photoaging forearms, four weeks): approximately 12% | skin thickness on the back of left hand (average) ([5]; Example 24: subject, 2% (w/v) in EP73 two to three times daily, six weeks, starting thickness 1.70 mm): 2.59 mm | increase over the starting skin thickness ([5]; Example 24: subject, back of left hand, 2% (w/v) in EP73 two to three times daily, six weeks): 52% | itch [6]: stopped within a few minutes | duration of relief of pains [7]: 24 h | period of diminished edema and inflammation of the knees and lower legs [7]: ~24 h | time after injection until pains in both knees disappeared [7]: 20 to 30 min | AG: Aging related changes of skin, nail and hair [8]: 3+ (3+: 75% Efficacy) | DI: Deranged immune disorders and inflammation [8]: 3+ (3+: 75% Efficacy) | DK: Disturbed keratinization [8]: 3+ (3+: 75% Efficacy) | ND: Nerve disorders [8]: 4+ (4+: 95-100% Efficacy)

N-Ac-L-Tyr-L-Tyr-L-Tyr-OH
increase in skin thickness of 6 mm size skin at the injection site [9]: 10-20% | increased skin thickness ([5]; Example 21: subject, sun damaged forearms, one week): approximately 29% | urination [10]: urge for urination | duration of relief of pains [7]: 24 h | period of diminished edema and inflammation of the knees and lower legs [7]: ~24 h | time after injection until pains in both knees disappeared [7]: 20 to 30 min | duration of substantial relief of pain in the joints ([7]; Example 25: subject, intra-articular 7-13 mg in aqueous solution each knee): 2 to 3 days | AG: Aging related changes of skin, nail and hair [8]: 2+ (2+: 50% Efficacy) | DI: Deranged immune disorders and inflammation [8]: 3+ (3+: 75% Efficacy) | DK: Disturbed keratinization [8]: 2+ (2+: 50% Efficacy) | ND: Nerve disorders [8]: 3+ (3+: 75% Efficacy)

From patent US20170112748A1, “N-ACYLPEPTIDE DERIVATIVES AND THEIR USES” (NeoStrata Company, Inc., priority 2012, published 2017)
